# From ChEMBL document CHEMBL4725268, “Anticonvulsant and analgesic in neuropathic pain activity in a group of new aminoalkanol derivatives” (Bioorg Med Chem Lett, 2020)
# Activity calls are given as the source filed them.
# Tests used:
# [1] = test system: Clostridioides difficile; assay: Antimicrobial activity against clinical strain Clostridium difficile assessed as reduction in bacterial growth at 0.195 to 100 ug/ml by disk diffusion method; assay type: organism-based; conditions: in vivo, dose 0.195-100 µg/ml
# [2] = Protection index, ratio of TD50 for toxicity in ip dosed mouse to ED50 for anticonvulsant activity in ip dosed mouse; assay type: organism-based; conditions: in vivo, read-out: PI
# [3] = Toxicity in mouse assessed as lethality at 50 mg/kg, ip; assay type: organism-based; conditions: in vivo
# [4] = test system: Hoylesella loescheii; assay: Antimicrobial activity against Prevotella loescheii ATCC 15930 assessed as reduction in bacterial growth at 0.195 to 100 ug/ml by disk diffusion method; assay type: organism-based, DSM 19665 = JCM 12249 = ATCC 15930; conditions: in vivo, dose 0.195-100 µg/ml
# [5] = Toxicity in ip dosed mouse assessed as motor impairment by rotarod test; assay type: organism-based; conditions: in vivo
# [6] = test system: Escherichia coli; assay: Antimicrobial activity against Escherichia coli ATCC 35218 assessed as reduction in bacterial growth at 0.195 to 100 ug/ml by serial dilution method; assay type: organism-based; conditions: in vivo, dose 0.195-100 µg/ml
# [7] = test system: Escherichia coli; assay: Antimicrobial activity against Escherichia coli ATCC 25922 assessed as reduction in bacterial growth at 0.195 to 100 ug/ml by serial dilution method; assay type: organism-based; conditions: in vivo, dose 0.195-100 µg/ml
# [8] = test system: Staphylococcus aureus; assay: Antimicrobial activity against Staphylococcus aureus ATCC 25923 assessed as reduction in bacterial growth at 0.195 to 100 ug/ml by serial dilution method; assay type: organism-based; conditions: in vivo, dose 0.195-100 µg/ml
# [9] = test system: Salmonella enterica; assay: Antimicrobial activity against Salmonella enterica ATCC 51957 assessed as reduction in bacterial growth at 0.195 to 100 ug/ml by serial dilution method; assay type: organism-based; conditions: in vivo, dose 0.195-100 µg/ml
# [10] = test system: Enterococcus faecalis; assay: Antimicrobial activity against Enterococcus faecalis ATCC 29212 assessed as reduction in bacterial growth at 0.195 to 100 ug/ml by serial dilution method; assay type: organism-based; conditions: in vivo, dose 0.195-100 µg/ml
# [11] = Antimicrobial activity against clinical strain Bifidobacterium assessed as reduction in bacterial growth at 0.195 to 100 ug/ml by disk diffusion method; conditions: dose 0.195-100 µg/ml
# [12] = test system: Mus musculus; assay: Anticonvulsant activity in ip dosed mouse assessed as protection against current-induced seizure by maximal electroshock seizure test; assay type: functional
# [13] = test system: Bacteroides fragilis; assay: Antimicrobial activity against Bacteroides fragilis ATCC 25285 assessed as reduction in bacterial growth at 0.195 to 100 ug/ml by disk diffusion method; assay type: organism-based; conditions: in vivo, dose 0.195-100 µg/ml
# [14] = molecular target: T1, 5-hydroxytryptamine receptor 1A (Homo sapiens) (UniProt P08908); assay: Binding affinity to 5-HT1A (unknown origin) at 10^-5 M; conditions: dose 1.0 10^-5M
# T1 sequence (whole entry): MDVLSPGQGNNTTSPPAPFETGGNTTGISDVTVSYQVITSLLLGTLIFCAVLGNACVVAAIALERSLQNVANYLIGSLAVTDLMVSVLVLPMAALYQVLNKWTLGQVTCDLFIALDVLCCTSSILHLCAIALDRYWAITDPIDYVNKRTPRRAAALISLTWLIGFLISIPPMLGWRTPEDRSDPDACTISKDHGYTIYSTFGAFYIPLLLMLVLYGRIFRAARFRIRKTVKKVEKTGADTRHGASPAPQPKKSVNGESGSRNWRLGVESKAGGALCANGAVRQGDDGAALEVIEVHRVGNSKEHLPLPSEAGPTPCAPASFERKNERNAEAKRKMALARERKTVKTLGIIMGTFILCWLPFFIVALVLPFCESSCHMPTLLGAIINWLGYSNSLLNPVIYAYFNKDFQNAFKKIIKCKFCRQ
# [15] = Toxicity in mouse assessed as lethality at 70 mg/kg, ip; assay type: organism-based; conditions: in vivo
# [16] = test system: Staphylococcus aureus; assay: Antimicrobial activity against clinical strain Staphylococcus aureus assessed as reduction in bacterial growth at 0.195 to 100 ug/ml by serial dilution method; assay type: organism-based; conditions: in vivo, dose 0.195-100 µg/ml
# [17] = organism: Mus musculus; assay: animal or person; conditions: Swiss, ip
# Description: Anticonvulsant activity in ip dosed Swiss mouse assessed as protection against current-induced seizure by maximal electroshock seizure test
# [18] = test system: Mus musculus; assay: Anticonvulsant activity in ip dosed albino mouse assessed as protection against 50 mA current-induced seizure by maximal electroshock seizure test; assay type: functional
# [19] = Genotoxicity in Salmonella typhimurium TA100 assessed as number of revertant at 10 ug by AMES test (reference value: 64.3 to 130.7); assay type: toxicity, Salmonella enterica subsp. enterica serovar Typhimurium; conditions: in vivo; dose 10 µg
# [20] = Genotoxicity in Salmonella typhimurium TA98 assessed as number of revertant at 200 ug by AMES test (reference value: 8 to 8.3); assay type: toxicity, Salmonella enterica subsp. enterica serovar Typhimurium; conditions: in vivo; dose 200 µg
# [21] = Genotoxicity in Salmonella typhimurium TA98 assessed as number of revertant at 500 ug by AMES test (reference value: 8 to 8.3); assay type: toxicity, Salmonella enterica subsp. enterica serovar Typhimurium; conditions: in vivo; dose 500 µg
# [22] = Genotoxicity in Salmonella typhimurium TA100 assessed as mutagenic index at 1000 ug by AMES test; assay type: toxicity, Salmonella enterica subsp. enterica serovar Typhimurium; conditions: in vivo; dose 1000 µg
# [23] = Genotoxicity in Salmonella typhimurium TA98 assessed as mutagenic index at 75 ug by AMES test; assay type: toxicity, Salmonella enterica subsp. enterica serovar Typhimurium; conditions: in vivo; dose 75 µg
# [24] = test system: Mus musculus; assay: Antiallodynic activity in mouse model of OXA-induced peripheral neuropathy assessed as mean latency time to nocifensive response at 18 mg/kg, ip administered after 7 days of OXA stimulation and measured after 1 hr by cold plate method (reference value: 57.64 +/- 1.267 sec); assay type: functional
# [25] = Antioxidant activity assessed as DPPH radical scavenging activity at 125 to 1000 uM by microplate method; assay type: functional; conditions: dose microM 125-1000
# [26] = Genotoxicity in Salmonella typhimurium TA100 assessed as mutagenic index at 75 ug by AMES test; assay type: toxicity, Salmonella enterica subsp. enterica serovar Typhimurium; conditions: in vivo; dose 75 µg
# [27] = Genotoxicity in Salmonella typhimurium TA98 assessed as number of revertant at 75 ug by AMES test (reference value: 8 to 8.3); assay type: toxicity, Salmonella enterica subsp. enterica serovar Typhimurium; conditions: in vivo; dose 75 µg
# [28] = Genotoxicity in Salmonella typhimurium TA98 assessed as mutagenic index at 500 ug by AMES test; assay type: toxicity, Salmonella enterica subsp. enterica serovar Typhimurium; conditions: in vivo; dose 500 µg
# [29] = Genotoxicity in Salmonella typhimurium TA100 assessed as number of revertant at 1000 ug by AMES test (reference value: 64.3 to 130.7); assay type: toxicity, Salmonella enterica subsp. enterica serovar Typhimurium; conditions: in vivo; dose 1000 µg
# [30] = test system: Mus musculus; assay: Antiallodynic activity in mouse model of OXA-induced peripheral neuropathy assessed as mean paw withdrawal threshold at 18 mg/kg, ip administered after 7 days of OXA stimulation and measured after 1 hr by Von-frey method (reference value: 3.192 +/- 0.181 g); assay type: functional
# [31] = Genotoxicity in Salmonella typhimurium TA98 assessed as mutagenic index at 200 ug by AMES test; assay type: toxicity, Salmonella enterica subsp. enterica serovar Typhimurium; conditions: in vivo; dose 200 µg
# [32] = Toxicity in mouse assessed as lethality at 10 mg/kg, ip; assay type: organism-based; conditions: in vivo
# [33] = Genotoxicity in Salmonella typhimurium TA98 assessed as number of revertant at 750 ug by AMES test (reference value: 8 to 8.3); assay type: toxicity, Salmonella enterica subsp. enterica serovar Typhimurium; conditions: in vivo; dose 750 µg
# [34] = Genotoxicity in Salmonella typhimurium TA100 assessed as mutagenic index at 10 ug by AMES test; assay type: toxicity, Salmonella enterica subsp. enterica serovar Typhimurium; conditions: in vivo; dose 10 µg
# [35] = Genotoxicity in Salmonella typhimurium TA98 assessed as mutagenic index at 10 ug by AMES test; assay type: toxicity, Salmonella enterica subsp. enterica serovar Typhimurium; conditions: in vivo; dose 10 µg
# [36] = Genotoxicity in Salmonella typhimurium TA98 assessed as mutagenic index at 750 ug by AMES test; assay type: toxicity, Salmonella enterica subsp. enterica serovar Typhimurium; conditions: in vivo; dose 750 µg
# [37] = Genotoxicity in Salmonella typhimurium TA100 assessed as number of revertant at 75 ug by AMES test (reference value: 64.3 to 130.7); assay type: toxicity, Salmonella enterica subsp. enterica serovar Typhimurium; conditions: in vivo; dose 75 µg
# [38] = Genotoxicity in Salmonella typhimurium TA98 assessed as number of revertant at 10 ug by AMES test (reference value: 8 to 8.3); assay type: toxicity, Salmonella enterica subsp. enterica serovar Typhimurium; conditions: in vivo; dose 10 µg
# [39] = Genotoxicity in Salmonella typhimurium TA100 assessed as number of revertant at 200 ug by AMES test (reference value: 64.3 to 130.7); assay type: toxicity, Salmonella enterica subsp. enterica serovar Typhimurium; conditions: in vivo; dose 200 µg
# [40] = Genotoxicity in Salmonella typhimurium TA100 assessed as mutagenic index at 500 ug by AMES test; assay type: toxicity, Salmonella enterica subsp. enterica serovar Typhimurium; conditions: in vivo; dose 500 µg
# [41] = test system: Mus musculus; assay: Antiallodynic activity in mouse model of OXA-induced peripheral neuropathy assessed as mean latency time to nocifensive response at 18 mg/kg, ip administered after 3 hrs of OXA stimulation and measured after 1 hr by cold plate method (reference value: 59.76 +/- 0.16 sec); assay type: functional
# [42] = Genotoxicity in Salmonella typhimurium TA100 assessed as number of revertant at 500 ug by AMES test (reference value: 64.3 to 130.7); assay type: toxicity, Salmonella enterica subsp. enterica serovar Typhimurium; conditions: in vivo; dose 500 µg
# [43] = test system: Mus musculus; assay: Antiallodynic activity in mouse model of OXA-induced peripheral neuropathy assessed as mean paw withdrawal threshold at 18 mg/kg, ip administered after 3 hrs of OXA stimulation and measured after 1 hr by Von-frey method (reference value: 3.144 +/- 0.169 g); assay type: functional
# [44] = Genotoxicity in Salmonella typhimurium TA100 assessed as mutagenic index at 200 ug by AMES test; assay type: toxicity, Salmonella enterica subsp. enterica serovar Typhimurium; conditions: in vivo; dose 200 µg
compound,measurement,setting,value
Cc1ccc(OCCCCN[C@H](C)CO)c(C)c1,Activity,[1],Non-Toxic
same,selectivity ratio,[2],2.59
same,Activity,[3],Non-Toxic
same,Activity,[4],Non-Toxic
same,TD50,[5],136 mg/kg
same,Activity,[6],Non-Toxic
same,Activity,[7],Non-Toxic
same,Activity,[8],Non-Toxic
same,Activity,[9],Non-Toxic
same,Activity,[10],Non-Toxic
same,Activity,[11],Non-Toxic
same,ED50,[12],52.5 mg/kg
same,Activity,[13],Non-Toxic
same,Activity,[14],inactive
same,Activity,[15],Non-Toxic
same,Activity,[16],Non-Toxic
Cc1cccc(C)c1OCC(C)N (racemic) [MEXILETINE],ED50,[17],11.9 mg/kg
same,ED50,[18],1.2 mg/kg
Cc1cc(C)c(C)c(OCCCN2CCC(O)CC2)c1,Activity,[1],Non-Toxic
same,Activity,[19],66
same,selectivity ratio,[2],3.58
same,Activity,[20],11
same,Activity,[21],6.7
same,Activity_index,[22],18.5
same,Activity_index,[23],1.8
same,Activity,[4],Non-Toxic
same,Time,[24],8.833 s
same,Activity,[25],inactive
same,Activity_index,[26],0.8
same,TD50,[5],63.4 mg/kg
same,Activity,[6],Non-Toxic
same,Activity,[27],15.3
same,Activity,[7],Non-Toxic
same,Activity,[8],Non-Toxic
same,Activity_index,[28],0.8
same,Activity,[9],Non-Toxic
same,Activity,[29],1190
same,Activity,[30],2.027 g
same,Activity_index,[31],1.3
same,Activity,[32],Non-Toxic
same,Activity,[33],364.3
same,Activity,[10],Non-Toxic
same,Activity,[11],Non-Toxic
same,ED50,[12],17.7 mg/kg
same,Activity_index,[34],1
same,Activity_index,[35],1.4
same,Activity,[13],Non-Toxic
same,Activity_index,[36],43.7
same,Activity,[37],52.3
same,Activity,[38],12
same,Activity,[39],42
same,Activity_index,[40],14.7
same,Activity,[14],inactive
same,Time,[41],15.167 s
same,Activity,[42],944
same,Activity,[43],1.921 g
same,Activity,[16],Non-Toxic
same,Activity_index,[44],0.7
